Measurements reported in patent US10112937B2, “P2X7 modulators and methods of use” (Janssen Pharmaceutica NV, priority 2013, dated 2018).

Columns and labels:
[1] = biological target: T1, human P2X7 (Homo sapiens (Human), UniProt Q99572); test: P2X7 antagonism in human PBMCs (IL-1β release after LPS + Bz-ATP, ELISA); assay type: cell-based; settings: human PBMCs; for PBMC 1 μM (% control): test compound 1 μM
[2] = biological target: T1, human P2X7; test: Radioligand binding ([3H]A-804598), human P2X7-1321N1 cell membranes
Experimental: human or rat P2X7-1321N1 cells were collected and frozen @−80° C. On the day of the experiment, cell membrane preparations were made according to standard published methods. […] The assay was terminated by filtration (GF/B filters pre-soaked with 0.3% PEI) and washed with washing buffer (Tris-HCl 50 mM). The IC50 generated in the binding assay was corrected for tracer concentration and affinity of the tracer to derive at the affinity (Ki) of the test compounds. […] For analysis, each concentration point is averaged from triplicate values and the averaged values are plotted on Graphpad Prism.

[3] = biological target: rat P2X7 (Rattus norvegicus (Rat), UniProt Q64663); test: Ca2+ flux (FLIPR) in 1321N1 cells expressing recombinant rat P2X7; assay type: cell-based;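 also: Calcium-4 dye fluorescence change read 180 s after agonist addition, with cells preincubated 30 min with compound and dye in 96-well plates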
Chain of rat P2X7 (Q64663 whole entry): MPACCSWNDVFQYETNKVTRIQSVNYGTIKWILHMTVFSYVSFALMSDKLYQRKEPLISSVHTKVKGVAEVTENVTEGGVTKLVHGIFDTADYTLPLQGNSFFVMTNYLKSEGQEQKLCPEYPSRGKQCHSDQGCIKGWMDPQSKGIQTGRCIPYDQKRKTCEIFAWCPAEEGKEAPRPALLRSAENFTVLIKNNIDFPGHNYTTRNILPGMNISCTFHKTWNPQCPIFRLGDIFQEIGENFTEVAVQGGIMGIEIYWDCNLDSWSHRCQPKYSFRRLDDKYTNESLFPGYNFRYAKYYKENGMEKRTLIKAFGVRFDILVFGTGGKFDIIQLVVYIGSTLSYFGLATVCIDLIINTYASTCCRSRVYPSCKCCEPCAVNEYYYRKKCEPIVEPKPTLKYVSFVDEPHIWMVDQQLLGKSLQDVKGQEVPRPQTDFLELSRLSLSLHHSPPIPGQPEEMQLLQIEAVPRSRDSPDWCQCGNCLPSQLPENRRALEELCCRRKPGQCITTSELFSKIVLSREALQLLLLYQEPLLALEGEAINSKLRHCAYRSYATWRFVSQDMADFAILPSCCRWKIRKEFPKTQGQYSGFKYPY

[4] = biological target: T1, human P2X7; test: Ca2+ flux (FLIPR) in 1321N1 cells expressing recombinant human P2X7; assay type: cell-based;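 also: cells loaded with Calcium-4 dye, preincubated with test compound for 30 min, fluorescence change read 180 s after agonist addition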
Experimental: P2X7 Antagonism in Recombinant Human P2X7 Cells or Recombinant Rat P2X7 Cells: (a) Ca^2+ Flux and (b) Radioligand Binding
1321N1 cells expressing the recombinant human or rat P2X7 channel was cultured in HyQ DME/(HyClone/Dulbecco's Modified Eagle Medium) high glucose supplemented with 10% Fetal Bovine Serum (FBS) and appropriate selection marker. Cells were seeded at a density of 25000 cells/well (96-well clear bottom black walled plates) in 100 μl volume/well. On the day of the experiment, cell plates were washed with assay buffer, containing (in mM): 130 NaCl, 2 KCl, 1 CaCl2, 1 MgCl2, 10 HEPES, 5 glucose; pH 7.40 and 300 mOs. After the wash, cells were loaded with the Calcium-4 dye (Molecular Device) and incubated in the dark for 60 minutes. Test compounds were prepared at 250× the test concentration in neat DMSO. Intermediate 96-well compound plates were prepared by transferring 1.2 μL of the compound into 300 μL of assay buffer. A further 3× dilution occurred when transferring 50 μL/well of the compound plate to 100 μL/well in the cell plate. Cells were incubated with test compounds and dye for 30 minutes. […] The fluorescence change was measured 180 seconds after adding the agonist.

[5] = human P2X7-1321N1 membranes, tritiated A-804598
[6] = 10 μM test compound, LPS + Bz-ATP
[7] = Ca2+ flux, 250 μM BzATP, rat P2X7 1321N1 cells
[8] = [3H]A-804598, human P2X7-1321N1 membranes
[9] = 1321N1 cells, recombinant human P2X7, 250 μM BzATP
[10] = 1321N1 cells, recombinant rat P2X7, 250 μM BzATP
[11] = Ca2+ flux, 250 μM BzATP, human P2X7 1321N1 cells

T1 sequence (Q99572 whole entry): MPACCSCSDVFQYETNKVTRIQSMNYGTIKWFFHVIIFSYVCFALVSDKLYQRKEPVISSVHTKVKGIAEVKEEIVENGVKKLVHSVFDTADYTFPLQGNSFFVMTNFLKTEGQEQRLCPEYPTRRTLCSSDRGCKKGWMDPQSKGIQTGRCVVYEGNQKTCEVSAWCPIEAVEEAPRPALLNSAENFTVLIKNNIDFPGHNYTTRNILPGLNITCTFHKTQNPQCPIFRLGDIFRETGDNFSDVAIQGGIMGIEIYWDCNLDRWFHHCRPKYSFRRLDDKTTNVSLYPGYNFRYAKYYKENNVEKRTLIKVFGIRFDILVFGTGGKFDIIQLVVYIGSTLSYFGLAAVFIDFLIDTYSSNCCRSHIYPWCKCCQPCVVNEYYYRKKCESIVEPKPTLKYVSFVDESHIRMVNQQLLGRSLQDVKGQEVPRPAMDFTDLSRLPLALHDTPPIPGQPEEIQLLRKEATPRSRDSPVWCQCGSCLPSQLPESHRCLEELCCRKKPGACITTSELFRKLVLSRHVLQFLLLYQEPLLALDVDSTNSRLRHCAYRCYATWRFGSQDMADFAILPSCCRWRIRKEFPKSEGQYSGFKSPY

Row | Compound | PBMC 10 μM (% control) ([1]; test compound 10 μM) | PBMC 10 μM (% control) [1, 6] [% control] | IC50 [3, 7] [µM] | IC50 [4, 9] [µM] | IC50 [3, 10] [µM] | IC50 [4, 11] [µM] | also measured
1 | Cc1c(C(=O)N2Cc3nnn(-c4cc[nH]n4)c3CC2C)cccc1C(F)(F)F (stereo not shown) [Example 154, (6-methyl-1-(1H-pyrazol-3-yl)-6,7-dihydro-1H-[1,2,3]triazolo[4,5-c]pyridin-5(4H)-yl)(2-methyl-3-(trifluoromethyl)phenyl)methanone] | −0.6 | – | – | – | – | – | Ki [2, 5]: 0.0079 µM
2 | C[C@H]1Cc2c(nnn2-c2ncc(F)cn2)CN1C(=O)c1ccc(Cl)cc1F [Example 156, (S)-(4-chloro-2-fluorophenyl)(1-(5-fluoropyrimidin-2-yl)-6-methyl-6,7-dihydro-1H-[1,2,3]triazolo[4,5-c]pyridin-5(4H)-yl)methanone] | 1.8 | – | – | – | – | – | Ki [2, 5]: 0.0063 µM
3 | CC1c2n[nH]c(-c3ccccn3)c2CCN1C(=O)c1cccc(C(F)(F)F)c1Cl (stereo not shown) [Example 432, (2-chloro-3-(trifluoromethyl)phenyl)(7-methyl-3-(pyridin-2-yl)-4,5-dihydro-2H-pyrazolo[3,4-c]pyridin-6(7H)-yl)methanone] | – | 0.3 | 0.0328 | – | – | – | Ki [2, 8]: 0.0158 µM
4 | Cc1nccc(-n2nnc3c2CCN(C(=O)c2cccc(C(F)(F)F)c2F)C3C)n1 (stereo not shown) [Example 400, (2-fluoro-3-(trifluoromethyl)phenyl)(4-methyl-1-(2-methylpyrimidin-4-yl)-6,7-dihydro-1H-[1,2,3]triazolo[4,5-c]pyridin-5(4H)-yl)methanone] | 32.0 | – | – | 16.9 | > 10 | – | –
5 | C[C@H]1Cc2c(nnn2-c2ncc(O)cn2)CN1C(=O)c1cccc(C(F)(F)F)c1F [Example 428, (S)-(2-fluoro-3-(trifluoromethyl)phenyl)(1-(5-hydroxypyrimidin-2-yl)-6-methyl-6,7-dihydro-1H-[1,2,3]triazolo[4,5-c]pyridin-5(4H)-yl)methanone] | – | 1.4 | 0.0212 | – | – | 0.0166 | –
6 | CC(C)n1ccc(-n2nnc3c2C[C@H](C)N(C(=O)c2ccnc(C(F)(F)F)c2Cl)C3)n1 [Example 416, (S)-(3-chloro-2-(trifluoromethyl)pyridin-4-yl)(1-(1-isopropyl-1H-pyrazol-3-yl)-6-methyl-6,7-dihydro-1H-[1,2,3]triazolo[4,5-c]pyridin-5(4H)-yl)methanone] | – | 1.9 | 0.0081 | – | – | 0.0473 | –
7 | Cc1c(C(=O)N2CCc3c(nnn3-c3ncccn3)C2)cccc1C(F)(F)F [Example 281, (2-methyl-3-(trifluoromethyl)phenyl)(1-(pyrimidin-2-yl)-6,7-dihydro-1H-[1,2,3]triazolo[4,5-c]pyridin-5(4H)-yl)methanone] | −1.9 | – | – | 0.0022 | 0.349 | – | –
8 | C[C@H]1c2nnn(-c3ccsc3)c2CCN1C(=O)c1cccc(C(F)(F)F)c1Cl [Example 421, (S)-(2-chloro-3-(trifluoromethyl)phenyl)(4-methyl-1-(thiophen-3-yl)-6,7-dihydro-1H-[1,2,3]triazolo[4,5-c]pyridin-5(4H)-yl)methanone] | – | −1.4 | > 10 | – | – | 1.03 | –
9 | CC(C)n1ccc(-n2nnc3c2C[C@H](C)N(C(=O)c2cccc(C(F)(F)F)c2Cl)C3)n1 [Example 412, (S)-(2-chloro-3-(trifluoromethyl)phenyl)(1-(1-isopropyl-1H-pyrazol-3-yl)-6-methyl-6,7-dihydro-1H-[1,2,3]triazolo[4,5-c]pyridin-5(4H)-yl)methanone] | – | −12.6 | 0.0041 | – | – | 0.0283 | –
10 | Cc1cc(-n2nnc3c2CCN(C(=O)c2cc(Cl)cc(C(F)(F)F)c2)C3C)ncc1F (stereo not shown) [Example 361, (3-chloro-5-(trifluoromethyl)phenyl)(1-(5-fluoro-4-methylpyridin-2-yl)-4-methyl-6,7-dihydro-1H-[1,2,3]triazolo[4,5-c]pyridin-5(4H)-yl)methanone] | 75.3 | – | – | > 10 | > 10 | – | –
11 | CC(C)n1ccc(-n2nnc3c2C[C@H](C)N(C(=O)c2cccc(C(F)(F)F)c2F)C3)n1 [Example 414, (S)-(2-fluoro-3-(trifluoromethyl)phenyl)(1-(1-isopropyl-1H-pyrazol-3-yl)-6-methyl-6,7-dihydro-1H-[1,2,3]triazolo[4,5-c]pyridin-5(4H)-yl)methanone] | – | 22.4 | 36.6 | – | – | > 10 | –
12 | Cc1cc(-n2nnc3c2CCN(C(=O)c2ccnc(C(F)(F)F)c2Cl)C3C)ncn1 (stereo not shown) [Example 403, (3-chloro-2-(trifluoromethyl)pyridin-4-yl)(4-methyl-1-(6-methylpyrimidin-4-yl)-6,7-dihydro-1H-[1,2,3]triazolo[4,5-c]pyridin-5(4H)-yl)methanone] | −0.2 | – | – | 0.435 | 12.5 | – | –
13 | Cc1cc(-n2nnc3c2CCN(C(=O)c2cccc(C(F)(F)F)c2F)C3C)ncn1 (stereo not shown) [Example 396, (2-fluoro-3-(trifluoromethyl)phenyl)(4-methyl-1-(6-methylpyrimidin-4-yl)-6,7-dihydro-1H-[1,2,3]triazolo[4,5-c]pyridin-5(4H)-yl)methanone] | 23.0 | – | – | 9.77 | > 10 | – | –
14 | CCOC(=O)C1c2ncn(-c3ccccc3)c2CCN1C(=O)c1cccc(C(F)(F)F)c1Cl (stereo not shown) [Example 26, Ethyl 5-(2-chloro-3-(trifluoromethyl)benzoyl)-1-phenyl-4,5,6,7-tetrahydro-1H-imidazo[4,5-c]pyridine-4-carboxylate] | – | – | – | 0.0077 | 0.0549 | – | PBMC 1 μM (% control) [1]: 14.0 % control
15 | CCn1ccc(-n2nnc3c2CCN(C(=O)c2ccnc(C(F)(F)F)c2F)[C@H]3C)n1 [Example 409, (S)-(1-(1-ethyl-1H-pyrazol-3-yl)-4-methyl-6,7-dihydro-1H-[1,2,3]triazolo[4,5-c]pyridin-5(4H)-yl)(3-fluoro-2-(trifluoromethyl)pyridin-4-yl)methanone] | – | 0.5 | 0.0184 | – | – | 0.0289 | –
16 | CC1c2n[nH]c(-c3ccnn3C)c2CCN1C(=O)c1cccc(Cl)c1Cl (stereo not shown) [Example 436, (2,3-dichlorophenyl)(7-methyl-3-(1-methyl-1H-pyrazol-5-yl)-4,5-dihydro-2H-pyrazolo[3,4-c]pyridin-6(7H)-yl)methanone] | – | −3.4 | > 10 | – | – | 1.13 | –
17 | CC1c2nnn(-c3ncc[nH]3)c2CCN1C(=O)c1cccc(Cl)c1Cl (stereo not shown) [Example 384, (1-(1H-imidazol-2-yl)-4-methyl-6,7-dihydro-1H-[1,2,3]triazolo[4,5-c]pyridin-5(4H)-yl)(2,3-dichlorophenyl)methanone] | −6.3 | – | – | 1.38 | > 10 | – | –
18 | CC(C)n1ccc(-n2nnc3c2CCN(C(=O)c2ccnc(C(F)(F)F)c2F)[C@H]3C)n1 [Example 419, (S)-(3-fluoro-2-(trifluoromethyl)pyridin-4-yl)(1-(1-isopropyl-1H-pyrazol-3-yl)-4-methyl-6,7-dihydro-1H-[1,2,3]triazolo[4,5-c]pyridin-5(4H)-yl)methanone] | – | −0.4 | 0.0157 | – | – | 0.092 | –
19 | CC(C)C1c2ncn(-c3cnccn3)c2CCN1C(=O)c1cccc(C(F)(F)F)c1Cl (stereo not shown) [Example 16, (2-Chloro-3-(trifluoromethyl)phenyl)(4-isopropyl-1-(pyrazin-2-yl)-6,7-dihydro-1H-imidazo[4,5-c]pyridin-5(4H)-yl)methanone] | – | – | – | 0.0937 | 0.257 | – | PBMC 1 μM (% control) [1]: 8.5 % control
20 | O=C(c1cccc(Cl)c1Cl)N1CCc2c(nnn2-c2ncccn2)C1 [Example 67, 5-[(2,3-Dichlorophenyl)carbonyl]-1-pyrimidin-2-yl-4,5,6,7-tetrahydro-1H-[1,2,3]triazolo[4,5-c]pyridine] | 6.5 | – | – | 0.002 | 0.053 | – | –
21 | CCOC(=O)C1c2ncn(-c3cnccn3)c2CCN1C(=O)c1cccc(C(F)(F)F)c1Cl (stereo not shown) [Example 28, Ethyl 5-{[2-chloro-3-(trifluoromethyl)phenyl]carbonyl}-1-pyrazin-2-yl-4,5,6,7-tetrahydro-1H-imidazo[4,5-c]pyridine-4-carboxylate] | – | – | – | 0.0065 | 0.0362 | – | PBMC 1 μM (% control) [1]: 4.8 % control
22 | CC1c2n[nH]c(-c3cnccn3)c2CCN1C(=O)c1cccc(Cl)c1Cl (stereo not shown) [Example 433, (2,3-dichlorophenyl)(7-methyl-3-(pyrazin-2-yl)-4,5-dihydro-2H-pyrazolo[3,4-c]pyridin-6(7H)-yl)methanone] | – | −3.6 | – | – | – | 0.0189 | Ki [2, 8]: 0.0158 µM
23 | CC1c2n[nH]c(-c3ccc(F)cc3)c2CCN1C(=O)c1cccc(Cl)c1Cl (stereo not shown) [Example 435, (2,3-dichlorophenyl)(3-(4-fluorophenyl)-7-methyl-4,5-dihydro-2H-pyrazolo[3,4-c]pyridin-6(7H)-yl)methanone] | – | −11.3 | – | – | – | 0.0586 | Ki [2, 8]: 0.1 µM
24 | Cc1cc(-n2nnc3c2CCN(C(=O)c2cc(C(F)(F)F)ccc2Cl)C3C)ncc1F (stereo not shown) [Example 352, (2-chloro-5-(trifluoromethyl)phenyl)(1-(5-fluoro-4-methylpyridin-2-yl)-4-methyl-6,7-dihydro-1H-[1,2,3]triazolo[4,5-c]pyridin-5(4H)-yl)methanone] | 98.2 | – | – | > 10 | > 10 | – | –
